From ChEMBL document CHEMBL5465560, “Selectivity Literature for EUbOPEN Chemogenomic Library” (2024) come the findings set out here.

Test [1] deals with T1, Mitogen-activated protein kinase kinase kinase 3 (Homo sapiens) (UniProt Q99759).
T1 sequence (whole entry): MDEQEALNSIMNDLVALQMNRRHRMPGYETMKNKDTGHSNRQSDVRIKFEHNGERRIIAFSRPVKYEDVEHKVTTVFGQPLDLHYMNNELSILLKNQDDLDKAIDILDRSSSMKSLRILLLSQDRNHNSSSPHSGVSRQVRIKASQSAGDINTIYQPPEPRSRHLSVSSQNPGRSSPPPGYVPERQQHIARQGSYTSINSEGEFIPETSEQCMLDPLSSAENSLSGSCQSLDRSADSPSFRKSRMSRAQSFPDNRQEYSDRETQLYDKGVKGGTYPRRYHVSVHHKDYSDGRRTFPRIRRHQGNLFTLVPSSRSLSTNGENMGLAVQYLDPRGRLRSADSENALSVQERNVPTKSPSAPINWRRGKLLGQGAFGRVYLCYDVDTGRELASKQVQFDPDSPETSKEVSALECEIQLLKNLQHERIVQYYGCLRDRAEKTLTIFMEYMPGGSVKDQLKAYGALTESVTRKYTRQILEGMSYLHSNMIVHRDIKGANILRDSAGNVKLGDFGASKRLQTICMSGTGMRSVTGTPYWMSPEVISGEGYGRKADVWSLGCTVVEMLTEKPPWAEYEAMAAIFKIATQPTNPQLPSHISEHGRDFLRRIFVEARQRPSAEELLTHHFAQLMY
The conditions noted are these: at 10 µM.

Test [2] concerns the target Mitogen-activated protein kinase 6 (Homo sapiens) (UniProt Q16659). In words: Selectivity interaction (KinomeScan (DiscoverX)) EUB0001079a MAPK6. To be noted: at 1 µM.
For test [3], the target named is Microtubule-associated serine/threonine-protein kinase 1 (Homo sapiens) (UniProt Q9Y2H9). In words: Selectivity interaction (KinomeScan (DiscoverX)) EUB0000695a MAST1. To be noted: at 100 nM.
Chain of Microtubule-associated serine/threonine-protein kinase 1 (Homo sapiens) (Q9Y2H9 whole entry, looked up): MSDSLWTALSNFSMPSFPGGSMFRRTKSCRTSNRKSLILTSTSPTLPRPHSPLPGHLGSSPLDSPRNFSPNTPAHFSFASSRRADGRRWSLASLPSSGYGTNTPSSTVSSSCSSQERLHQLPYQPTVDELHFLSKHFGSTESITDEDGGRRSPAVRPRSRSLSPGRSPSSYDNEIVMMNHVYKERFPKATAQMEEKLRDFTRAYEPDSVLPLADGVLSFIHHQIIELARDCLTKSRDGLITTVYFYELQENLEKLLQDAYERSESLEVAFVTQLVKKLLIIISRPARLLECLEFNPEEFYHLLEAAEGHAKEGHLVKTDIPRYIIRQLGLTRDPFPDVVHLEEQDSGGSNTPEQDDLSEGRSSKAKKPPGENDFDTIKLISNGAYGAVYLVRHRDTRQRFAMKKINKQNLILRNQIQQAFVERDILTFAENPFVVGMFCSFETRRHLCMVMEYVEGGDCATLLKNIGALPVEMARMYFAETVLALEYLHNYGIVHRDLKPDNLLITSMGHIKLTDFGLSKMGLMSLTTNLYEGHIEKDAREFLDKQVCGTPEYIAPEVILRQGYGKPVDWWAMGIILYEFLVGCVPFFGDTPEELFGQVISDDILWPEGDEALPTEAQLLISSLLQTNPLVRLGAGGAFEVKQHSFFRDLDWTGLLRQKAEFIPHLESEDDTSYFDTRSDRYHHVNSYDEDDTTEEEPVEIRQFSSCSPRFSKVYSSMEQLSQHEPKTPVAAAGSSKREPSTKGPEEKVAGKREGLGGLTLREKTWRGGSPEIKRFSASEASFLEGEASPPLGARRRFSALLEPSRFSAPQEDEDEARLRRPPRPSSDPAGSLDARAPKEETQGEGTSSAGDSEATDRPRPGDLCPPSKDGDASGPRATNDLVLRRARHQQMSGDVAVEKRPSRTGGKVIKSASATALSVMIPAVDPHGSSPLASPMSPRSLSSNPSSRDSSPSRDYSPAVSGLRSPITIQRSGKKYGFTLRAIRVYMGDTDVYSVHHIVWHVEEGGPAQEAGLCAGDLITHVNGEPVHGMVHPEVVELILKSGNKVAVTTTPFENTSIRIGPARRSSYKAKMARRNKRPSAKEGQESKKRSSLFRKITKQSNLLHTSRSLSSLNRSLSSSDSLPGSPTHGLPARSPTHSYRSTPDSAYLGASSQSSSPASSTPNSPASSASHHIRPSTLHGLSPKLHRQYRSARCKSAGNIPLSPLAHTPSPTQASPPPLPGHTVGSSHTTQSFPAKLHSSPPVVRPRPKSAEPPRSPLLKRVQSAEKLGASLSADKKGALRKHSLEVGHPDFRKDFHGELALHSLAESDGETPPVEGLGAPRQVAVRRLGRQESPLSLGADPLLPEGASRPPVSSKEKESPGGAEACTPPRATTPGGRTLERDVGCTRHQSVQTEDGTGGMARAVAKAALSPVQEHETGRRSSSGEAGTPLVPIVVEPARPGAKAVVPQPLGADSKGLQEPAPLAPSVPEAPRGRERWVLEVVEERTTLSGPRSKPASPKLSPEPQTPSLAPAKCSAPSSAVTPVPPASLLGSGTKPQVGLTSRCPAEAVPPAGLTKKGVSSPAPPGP
For test [4], the target named is T2, Serine/threonine-protein kinase D2 (Homo sapiens) (UniProt Q9BZL6).
T2 sequence (whole entry): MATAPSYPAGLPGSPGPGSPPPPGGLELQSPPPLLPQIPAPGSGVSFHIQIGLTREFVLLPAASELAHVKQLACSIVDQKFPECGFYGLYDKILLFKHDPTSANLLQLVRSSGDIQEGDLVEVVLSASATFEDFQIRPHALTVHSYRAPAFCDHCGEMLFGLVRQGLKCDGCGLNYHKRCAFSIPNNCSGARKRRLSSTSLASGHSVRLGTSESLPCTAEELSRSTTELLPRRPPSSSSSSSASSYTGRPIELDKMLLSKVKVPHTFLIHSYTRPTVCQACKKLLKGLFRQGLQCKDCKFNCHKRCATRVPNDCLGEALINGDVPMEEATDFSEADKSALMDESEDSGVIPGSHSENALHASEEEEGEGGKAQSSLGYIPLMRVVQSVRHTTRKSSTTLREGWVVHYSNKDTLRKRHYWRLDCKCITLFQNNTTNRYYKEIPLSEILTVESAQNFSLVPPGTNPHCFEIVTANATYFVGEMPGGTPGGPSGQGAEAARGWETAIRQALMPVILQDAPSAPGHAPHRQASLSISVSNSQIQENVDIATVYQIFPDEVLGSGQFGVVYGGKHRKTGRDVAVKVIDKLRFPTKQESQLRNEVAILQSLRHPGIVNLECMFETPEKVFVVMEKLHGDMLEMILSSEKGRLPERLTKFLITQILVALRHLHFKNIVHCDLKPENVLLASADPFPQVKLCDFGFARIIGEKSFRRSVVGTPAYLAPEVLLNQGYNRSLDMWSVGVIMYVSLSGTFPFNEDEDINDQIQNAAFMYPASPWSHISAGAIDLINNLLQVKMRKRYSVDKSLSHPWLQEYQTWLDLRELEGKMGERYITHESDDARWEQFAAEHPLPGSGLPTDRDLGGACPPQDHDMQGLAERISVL
In words: Selectivity interaction (KinomeScan (DiscoverX)) EUB0000666a PRKD2. To be noted: at 10 µM.

The target in test [5] is T3, MAP/microtubule affinity-regulating kinase 4 (Homo sapiens) (UniProt Q96L34).
T3 sequence (whole entry): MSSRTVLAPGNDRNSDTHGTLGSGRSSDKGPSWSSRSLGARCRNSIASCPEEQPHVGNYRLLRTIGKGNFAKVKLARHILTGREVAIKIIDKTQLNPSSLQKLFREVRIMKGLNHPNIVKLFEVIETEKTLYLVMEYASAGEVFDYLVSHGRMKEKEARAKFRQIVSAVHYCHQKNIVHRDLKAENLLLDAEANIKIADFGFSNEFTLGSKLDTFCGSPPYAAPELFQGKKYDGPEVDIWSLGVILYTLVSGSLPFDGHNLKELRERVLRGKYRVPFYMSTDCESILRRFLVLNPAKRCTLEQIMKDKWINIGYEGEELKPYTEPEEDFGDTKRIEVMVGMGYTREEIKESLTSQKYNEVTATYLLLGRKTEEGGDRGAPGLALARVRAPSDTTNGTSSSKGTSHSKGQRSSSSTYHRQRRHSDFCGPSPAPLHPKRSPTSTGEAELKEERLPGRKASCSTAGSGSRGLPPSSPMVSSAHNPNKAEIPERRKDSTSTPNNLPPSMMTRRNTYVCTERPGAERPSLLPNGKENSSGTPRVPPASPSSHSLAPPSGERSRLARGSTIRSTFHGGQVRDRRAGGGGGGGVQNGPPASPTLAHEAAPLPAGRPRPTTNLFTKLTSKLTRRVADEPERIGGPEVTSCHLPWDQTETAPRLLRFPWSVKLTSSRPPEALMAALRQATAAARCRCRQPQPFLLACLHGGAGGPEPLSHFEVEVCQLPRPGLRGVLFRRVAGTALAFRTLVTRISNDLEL
The experiment in a line: Selectivity interaction (Kinase panel (Z-LYTE Assay)) EUB0001632a MARK4. To be noted: at 10 µM.

Test [6] addresses T4, STE20-related kinase adapter protein alpha (Homo sapiens) (UniProt Q7RTN6).
T4 sequence (whole entry): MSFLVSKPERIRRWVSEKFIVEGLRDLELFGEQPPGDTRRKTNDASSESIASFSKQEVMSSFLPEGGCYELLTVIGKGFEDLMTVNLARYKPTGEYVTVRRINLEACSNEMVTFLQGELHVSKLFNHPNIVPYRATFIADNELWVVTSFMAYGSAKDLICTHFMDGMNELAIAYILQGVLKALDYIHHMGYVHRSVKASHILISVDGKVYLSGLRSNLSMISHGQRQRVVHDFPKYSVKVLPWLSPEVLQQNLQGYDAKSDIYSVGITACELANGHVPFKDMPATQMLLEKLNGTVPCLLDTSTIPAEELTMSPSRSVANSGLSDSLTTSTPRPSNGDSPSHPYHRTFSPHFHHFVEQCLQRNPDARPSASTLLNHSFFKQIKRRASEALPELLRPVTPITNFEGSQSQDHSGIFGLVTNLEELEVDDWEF
The experiment in a line: Selectivity interaction (Kinase panel (KiNativ target engagement assay in Jurkat cells)) EUB0001635a STRADA. The format is cell-based. To be noted: Selectivity number of off-targets 0.0, Selectivity number of targets 233.0, Source Knowledge https://www.sciencedirect.com/science/article/pii/S2451945619300674?via%3Dihub, at 1 µM.

Structures are written as SMILES.

Chain of Mitogen-activated protein kinase 6 (Homo sapiens) (Q16659 whole entry): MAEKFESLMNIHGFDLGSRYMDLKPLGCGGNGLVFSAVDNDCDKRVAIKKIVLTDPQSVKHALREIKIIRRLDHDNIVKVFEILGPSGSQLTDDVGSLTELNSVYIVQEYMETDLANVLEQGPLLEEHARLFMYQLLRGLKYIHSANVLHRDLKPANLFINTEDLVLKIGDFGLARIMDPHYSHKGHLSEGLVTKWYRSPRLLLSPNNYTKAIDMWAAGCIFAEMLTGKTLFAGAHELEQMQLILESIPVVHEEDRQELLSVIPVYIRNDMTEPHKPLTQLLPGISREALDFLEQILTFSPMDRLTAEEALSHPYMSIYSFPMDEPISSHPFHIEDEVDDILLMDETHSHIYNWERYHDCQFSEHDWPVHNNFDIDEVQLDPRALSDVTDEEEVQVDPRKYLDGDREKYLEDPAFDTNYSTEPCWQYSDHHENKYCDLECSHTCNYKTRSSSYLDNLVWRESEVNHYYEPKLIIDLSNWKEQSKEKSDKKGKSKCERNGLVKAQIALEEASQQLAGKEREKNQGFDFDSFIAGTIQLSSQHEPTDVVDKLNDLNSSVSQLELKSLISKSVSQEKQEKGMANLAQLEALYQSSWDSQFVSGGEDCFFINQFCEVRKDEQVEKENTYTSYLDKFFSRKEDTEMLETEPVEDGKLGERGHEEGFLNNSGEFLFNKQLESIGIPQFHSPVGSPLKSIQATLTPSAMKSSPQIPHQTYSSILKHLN

In test [1], `Cc1cc([C@@H](C)Nc2ccccc2C(=O)O)c2nc(N3CCOCC3)cc(=O)n2c1` [AZD-6482] yielded a % of control of 87%.

In the case of `Nc1cnc(N2CCc3cc(S(=O)(=O)Nc4c(F)cc(Cl)cc4F)cc(N4CCCC4=O)c32)nc1` [TP-020n], the % of control in test [2] worked out at 100%.

On to `Cc1cc(F)c(C(=O)Nc2cccc(-c3nncn3C(C)C)n2)cc1-n1cnc(C2CC2)c1`, for which the % of control in test [3] was determined as 87%.

With `O=C(NOC[C@H](O)CO)c1ccc(F)c(F)c1Nc1ccc(I)cc1F`, in test [4], the % of control worked out at 100%.

With `Cn1cc(-n2cnc3c(NCc4nc5cc(Cl)c(Cl)cc5[nH]4)nc(N4CCOCC4)nc32)cn1`, the % of control in test [5] was found to be 18.7%.

As for `C=CC(=O)Nc1ccc(C(=O)Nc2[nH]nc3c2CN(C(=O)N[C@H](CN(C)C)c2ccccc2)C3(C)C)cc1`, the % of engagement in test [6] amounted to 2.1%.
